Results on 2 molecules are retold here after article PMC11994644, “In vivo quantification of [^11C]BIO-1819578 in non-human primates, a novel radioligand for O-GlcNAcase” (Journal of Cerebral Blood Flow & Metabolism, 2025).

One assay has as its system O-GlcNAcase (OGA). The assay can be described thus: OGA occupancy after pretreatment with Thiamet-G (revisited Lassen plot). The assay is classed as in vivo, cynomolgus monkey.
In another assay the target is OGA. The conditions noted are these: cited from earlier work.

Structures are written as SMILES. Entries after “also recorded” stand apart in the source; their conditions may differ.

On to `CCN=C1N[C@@H]2[C@@H](O)[C@H](O)[C@@H](CO)O[C@@H]2S1` [Thiamet-G], for which the occupancy with O-GlcNAcase (OGA) (Thiamet-G 10 mg/kg i.v. 45 minutes prior to PET, 2TCM, one NHP) is on record as 97.6%. The “effect of pretreatment on [^11C]BIO-1819578 distribution volume (VT)” value in the assay on O-GlcNAcase (OGA) (Thiamet-G 10 mg/kg i.v., NHP 3) was “reduced the distribution volume in all brain regions; also recorded: decreased in all regions”.
On to `CC(=O)Nc1ncc(CN2CCC[C@H](N(C)c3ccc(F)cn3)C2)s1` [BIO-1819578], for which the equilibrium dissociation constant (Kd) at OGA was 2.3 nM.

A word on the Kd: it is the concentration at which binding is half-saturated.
